Assay results as given in patent EP0719267B1, “SECOND MESSENGER CELL SIGNALING INHIBITORS” (CELL THERAPEUTICS, INC., priority 1993, dated 1994).
Like-named read-outs stand apart in the source and are kept apart here.

Legend:
[1] = system: murine thymocyte proliferation; experiment: Thymocyte proliferation co-stimulated by ConA and IL-2 (tritiated thymidine); format: cell-based, Balb/C mice; conditions: for inhibition with delayed addition: 1 µM
[2] = system: murine splenocytes; experiment: Anti-CD3 stimulated splenocyte proliferation; format: cell-based; conditions: Mus musculus
Method: In the assay, murine splenocytes were activated with a monoclonal antibody directed against CD3 (1 µg/ml), resulting in an IL-2 mediated proliferative response.
45 (1 µM). […] The supernatants were harvested and assayed for cytokine levels using commercial ELISAs for proliferation.

[3] = system: Lewis Lung Carcinoma; experiment: Lewis Lung Carcinoma (3LL) in vivo experiment; set-up: species or system BDFI mice
Method: Figure 43 reports results in an in vivo experiment showing that inventive compound no. […] BDFI mice were injected subcutaneously with 1 x 10^6 3LL cells on day 0 and then treated with inventive compound no. (20 mg/kg i.p.), cyclophosphamide (20 mg/kg) or vehicle on alternate days beginning on day 7. The animals were sacrificed on day 20 and the lung tumors dissected and weighed. Figure 43 illustrates that compound no. […] Figure 44A and 44B illustrates platelet and neutrophil counts, respectively, of the sacrificed mice in the immediately preceding assay. […] 50.

[4] = system: human aortic smooth muscle cells (aortic SMC); experiment: Growth factor-induced proliferation of aortic smooth muscle cells; format: cell-based; conditions: 5 µM
Method: 58. One assay was used for investigating effects on PDGF-induced proliferation of human aortic smooth muscle cells (aortic SMC). Cells, purchased from a commercial supplier (Cell Systems, Inc., Seattle, WA), were cultured with various concentrations of PDGF-BB with and without addition of compound no. 58 (5 µM). […] 58 inhibited PDGF-induced proliferation even at high PDGF concentrations providing maximum proliferative stimulation. In addition, some cultures were treated 1 hour prior to PDGF stimulation with inventive compound no. 58. As shown, PDGF stimulated proliferation in this cell line. Addition of 5 µM of compound no. […] 58 were observed.
Another assay was used for investigating inhibitory effects of inventive compound no. 58 on either basic or acidic FGF-induced proliferation in human aortic smooth muscle cells (aortic SMC). Disregulated bFGF- or aFGF-induced proliferation is linked to SMC proliferation and neointimal occlusion in atherogenesis and restenosis and plays a role in autocrine and paracrine stimulation of tumor cells and tumor cell-induced angiogenesis. In this assay, cells were grown in reduced serum (0.5% fetal calf serum) for 24 hours prior to stimulating with various concentrations of […]. Cells were stimulated with various concentrations overnight of either aFGF or bFGF, adding 5µM of compound no. 58 in selected cultures. Compound no. […] Results shown in figure 20A (aFGF) and figure 20B (bFGF) illustrate the degree of inhibition.
Figures 65A-65F illustrate inhibition of proliferation in either human aortic or pulmonary smooth muscle cells (SMC) by inventive compound no. 58. Procedurally, cells were cultured in 0.5% serum containing medium 24 hours prior to stimulation with various concentrations of either PDGF (figs. 65A and 65B), acidic FGF (figs. 65C and 65D) or basic FGF (figs. 65E and 65F). Cells were stimulated for 24 hours prior to labeling with ^3H-TdR for 4 hours and harvested and counted by scintillation. Compound no. 58 was added 1 hour prior to stimulation at a concentration of 5 µM. Even at points of maximum stimulation of the growth factors, compound no. […] In addition cell number was assessed and those treated with compound no.

[5] = system: Swiss/3T3 cells; experiment: EGF-induced proliferation in Swiss/3T3 cells; format: cell-based; conditions: 20 ng/ml EGF
Method: As illustrated in figures 67A and 67B, inventive compound no. 58 inhibited VEGF-induced proliferation in HUVEC and EGF-induced proliferation in Swiss/3T3 cells, respectively. Procedurally, HUVEC were placed in 0.5% serum containing medium prior to stimulation with various concentrations of VEGF, with or without inventive compound no. 58 (5 µM). Twenty four hours later the cells were pulsed with ^3H-TdR and 4 hours later harvested and counted by scintillation. The IC50 for inhibition was approximately 50-100 nM. Swiss 3T3 cells were stimulated with 20 ng/ml EGF and 24 hours later harvested and counted by scintillation.

[6] = system: human TNFα; experiment: Whole blood ex vivo assay of TNF release (ELISA); format: cell-based; conditions: mouse TNFα and human IL-1α, 6 hours
Method: Figure 74 illustrates that inventive compound no. […] 58 using a human whole blood ex vivo assay. In this assay, human whole blood was stimulated with mouse TNFα and human IL-1α with or without various concentrations of inventive compound no. 58. After 6 hours, the plasma was analyzed for human TNFα levels using a commercial ELISA.

[7] = 20 mg/kg i.p. alternate days from day 7, day 20

With `CCCCCCCCNCC(O)CCCCCCCCCn1c(=O)c2c(ncn2C)n(C)c1=O` (stereo not drawn) [compound no. 45] the “inhibition with delayed addition” value ([1]; added 72 and 92 hours after IL-2) was “significant inhibition remained even at 72 and 92 hours following addition of IL-2”, the “inhibition with delayed addition” value ([1]; added 24 hours after IL-2) was “maximally inhibits thymocyte proliferation even when added 24 hours following the IL-2 stimulation” and the IC50 ([1]; Mus musculus, Thymocyte, Con A (0.25 µg/ml) and IL-2 (20 ng/ml), 96 hours) was ~350 nM. The IC50 ([2]; anti-CD3 (1 µg/ml), read-out: IC50) was ~850 nM and the IC50 ([2]; read-out: concentration approximately equal to IC50 value) was ~1000 nM.
For `CCCCCCCCCCCCNCC(O)CCCCCCCCCn1c(=O)c2c(ncn2C)n(C)c1=O` (stereo not drawn) [compound no. 50, 1-(11-Dodecylamino-10-hydroxyundecyl)-3,7-dmethylxanthine], the “lung tumor weight compared with cyclophosphamide (20 mg/kg)” value [3, 7] was “superior results over an existing cancer chemotherapeutic agent”, the tumor growth [3, 7] was “can arrest growth of Lewis Lung Carcinoma in mice” and the “platelet and neutrophil counts” value ([3]; 20 mg/kg i.p., sacrificed mice) was “not altered from vehicle”.
For `COc1cc(CNCC(O)CCCCCCCCCn2c(=O)c3c(ncn3C)n(C)c2=O)cc(OC)c1OC` (stereo not drawn) [compound no. 58, 1-[11-(3,4,5-Trimethoxybenzylamino)-10-hydroxyundecyl]-3,7-dimethylxanthine], the “inhibition of PDGF-induced proliferation” value [4] was “blocked PDGF-stimulated proliferation”, the “inhibition of aFGF- and bFGF-induced proliferation” value [4] was “a potent inhibitor of both aFGF- and bFGF-induced proliferation” and the toxic effects [4] was “No toxic effects”. The “inhibition of proliferation at maximum stimulation by PDGF, acidic FGF or basic FGF” value ([4]; added 1 hour prior) was “completely inhibited cellular proliferation in both aortic and pulmonary SMC”, the “cell number following growth factor stimulation” value ([4]; aortic and pulmonary SMC) was “showed no increase in cell number following growth factor stimulation” and the IC50 [5] was ~20 nM. For the same molecule, the TNF release [6] was “inhibited TNF release”.
